Holding throughout (assay): NCI anticancer screen, dose series, 48 h
The subject of experiment [1] is SNB-78.
The test system of experiment [2] is DMS-273.
In experiment [3] the test system is KM-20L2.
For experiment [4], the system named is XF498.
The test system of experiment [5] is DMS-114.
Experiment [6] deals with RXF 631.
In experiment [7] the test system is LXFL 529.
Experiment [8] relates to HOP-18.
Experiment [9] deals with M19-MEL.

Results on eight compounds are retold here after ChEMBL document CHEMBL1201862, “PubChem BioAssay data set” (2004).

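Assay format: 96-well plates, 48-hour exposure. GI50 = concentration required for 50% inhibition of growth.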 Active and inactive are the calls of the source. Cut-off read from the data, not from the text of the source: active = GI50 up to about 1.1 µM and inactive = higher. Some results are limits rather than exact numbers.

Take `CCN(CC)c1ccc2c(c1)Oc1ccc(N(CC)CC)cc1C21Oc2ccccc2-c2c1c1ccccc1n2CC` (centres undefined): the GI50 in experiment [1] is 7.36 µM (inactive); in [2] it was 3.4 µM (inactive); in experiment [3] it was 0.875 µM (active); in experiment [4], 1.06 µM (active); in [5] it was 0.506 µM (active); in experiment [6], 6.1 µM (inactive). In addition, the GI50 in experiment [7] was 3.36 µM (inactive); in experiment [8], 0.614 µM (active).

In the case of `COc1ccc(/C=C/c2cc(OC)c(OC)c(OC)c2)cc1`, the GI50 in experiment [1] is 17.8 µM (inactive); in experiment [9] it was 9.95 µM (inactive); in experiment [2], 2.8 µM (inactive); in experiment [3] it was 2.34 µM (inactive); in experiment [4], 0.592 µM (active); in experiment [5] it was 27 µM (inactive). The figures for the GI50 in experiment [6] and in [7] were 3.73 µM (inactive) and 31.8 µM (inactive), respectively.

Turning to `CCOCN1COCN(C)C1=O`, the GI50 in experiment [1], in experiment [9], in experiment [2], in [3], in experiment [4] and in experiment [6] was > 100 µM (inactive) throughout. Moreover, the GI50 in experiment [8] was > 100 µM (inactive).

For `Cc1c(Cl)cccc1NC(=O)C(=O)C(C(=O)c1ccccc1-c1ccccc1)C1OC(=O)c2ccccc21` (centres undefined), the GI50 in experiment [1] was 22.2 µM (inactive); in experiment [9] it was 15.1 µM (inactive); in experiment [2] it was 24.4 µM (inactive); in experiment [3], 23.7 µM (inactive); in experiment [4], 11.5 µM (inactive); in experiment [5] it was 16 µM (inactive). Also, the GI50 in experiment [6] is 23.7 µM (inactive); in experiment [7] it was 14 µM (inactive).

For `COc1cc2c(c(OC)c1OC)-c1ccc(SC)c(=O)cc1C(CC(=O)Oc1cccc([N+](=O)[O-])c1)C2` (centres undefined), the GI50 in experiment [1] was 0.481 µM (active); in [9] it was 0.458 µM (active); in experiment [2] it was 0.364 µM (active); in experiment [3], 0.585 µM (active); in [4], 0.74 µM (active); in experiment [5], 0.312 µM (active). For the same compound, the GI50 is 0.502 µM (active) in experiment [6], 0.619 µM (active) in [7] and > 100 µM (inactive) in experiment [8].

Take `O=C(O/C(=C(/N=N/c1ccccc1)c1ccccc1)c1ccccc1)c1ccccc1`: the GI50 in experiment [1] is > 100 µM (inactive); in experiment [3] it was > 100 µM (inactive); in experiment [4], > 100 µM (inactive); in experiment [5], > 100 µM (inactive); in experiment [6], 16.7 µM (inactive); in experiment [7], > 100 µM (inactive). For the same compound, the GI50 in experiment [8] was > 100 µM (inactive).

In the case of `[C-]#[N+]C(C)(C)C[C@H]1CC(C)C2CCC(C)C3([N+]#[C-])CCC(=C)C1[C@H]23` (some centres undefined), the GI50 is 0.249 µM (active) in [1]; 1.5 µM (inactive) in experiment [9]; 0.286 µM (active) in experiment [2]; 5.36 µM (inactive) in [3]; 2.62 µM (inactive) in experiment [4]; 1.86 µM (inactive) in experiment [6]. The GI50 in experiment [7] is 1.82 µM (inactive); in experiment [8] it was 0.046 µM (active).

With `CC1CCC[P+](Cc2ccccc2)(c2ccccc2)CC1` (centres undefined), the GI50 in experiment [1] is 48.3 µM (inactive); in experiment [9], 27.6 µM (inactive); in [2], 33.6 µM (inactive); in experiment [3] it was 50.6 µM (inactive); in [4] it was 21.4 µM (inactive); in [5], 18.5 µM (inactive). Also, the GI50 is > 100 µM (inactive) in experiment [6], 15.8 µM (inactive) in experiment [7] and 0.078 µM (active) in experiment [8].
